The text below walks through data of PubChem BioAssay (NCI).

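In this assay, cells in 96-well plates receive the compound at five concentrations for 48 hours. Endpoints are linearly interpolated between the surrounding concentrations. The concentration for 50% growth inhibition is given as GI50. TGI is the concentration that stops growth completely.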

Among the test systems are HT29 colon; SN12C renal; IGROV1 ovarian; A549 NSCLC; OVCAR-5 ovarian; LOX IMVI melanoma; HCT-116 colon; NCI-H226 lung; SF-268 CNS; SK-OV-3 ovarian.
Experiment in all cases: NCI-60 cell line screen, 48 h

Regarding `COc1ccc2nc3cc(Cl)ccc3c(Sc3ccc([N+](=O)[O-])cc3)c2c1`, the TGI with HT29 colon, with SN12C renal, in the assay on IGROV1 ovarian, with A549 NSCLC, in the assay with OVCAR-5 ovarian and in the assay with LOX IMVI melanoma was over 100 µM in each case. The TGI with HCT-116 colon, with NCI-H226 lung, with SF-268 CNS and with SK-OV-3 ovarian was over 100 µM each time. Besides, the GI50 in the assay with SN12C renal, with IGROV1 ovarian, with A549 NSCLC, in the assay with OVCAR-5 ovarian, in the assay with LOX IMVI melanoma and in the assay with HCT-116 colon was over 100 µM in each case. For the same compound, the GI50 with NCI-H226 lung, with SF-268 CNS and with SK-OV-3 ovarian was over 100 µM throughout.
In the case of `COc1cc(C(=O)N/N=C/c2ccc(N(C)C)cc2)cc(OC)c1OC`, the GI50 with HT29 colon is 0.347 µM; in the assay on SN12C renal, 1.1 µM; in the assay on IGROV1 ovarian, 1.15 µM; with A549 NSCLC it was 0.502 µM; in the assay on OVCAR-5 ovarian, 3.29 µM; with LOX IMVI melanoma, 0.736 µM. Besides, the GI50 in the assay with HCT-116 colon is 0.392 µM; in the assay with NCI-H226 lung it was 4.68 µM; with SF-268 CNS, 1.12 µM; with SK-OV-3 ovarian, 0.478 µM. In addition, the TGI in the assay with SN12C renal, with IGROV1 ovarian, with A549 NSCLC, with OVCAR-5 ovarian, in the assay with LOX IMVI melanoma and with HCT-116 colon was over 100 µM in each case. Further, the TGI was over 100 µM in the assay on NCI-H226 lung, over 100 µM in the assay with SF-268 CNS and over 31.1 µM in the assay on SK-OV-3 ovarian.
Regarding `COC(=O)C(Cc1nc2ccccc2nc1C)/C(=N\NC(N)=O)C(=O)Nc1cccc([N+](=O)[O-])c1` (stereo not drawn), the TGI in the assay with HT29 colon, with SN12C renal, in the assay on IGROV1 ovarian, with A549 NSCLC, with OVCAR-5 ovarian and with LOX IMVI melanoma was over 100 µM throughout. The TGI in the assay with HCT-116 colon, in the assay with NCI-H226 lung, in the assay on SF-268 CNS and in the assay with SK-OV-3 ovarian was over 100 µM throughout.
As for `CC(=O)Oc1ccc(/C(=C(\C)c2ccc(Cl)cc2)c2ccc(OCCN3CCCCC3)cc2)cc1`, the GI50 is 1.19 µM in the assay with HT29 colon; 1.69 µM in the assay with SN12C renal; 2.35 µM with IGROV1 ovarian; 1.94 µM with A549 NSCLC; 2.72 µM in the assay with OVCAR-5 ovarian; 1.65 µM with LOX IMVI melanoma. Further, the GI50 is 1.34 µM with HCT-116 colon, 6.39 µM in the assay with NCI-H226 lung, 1.82 µM in the assay with SF-268 CNS and 2.31 µM in the assay on SK-OV-3 ovarian. Besides, the TGI in the assay on HT29 colon stood at 3.24 µM; in the assay on SN12C renal it was 3.52 µM; with IGROV1 ovarian it was 5.14 µM; with A549 NSCLC, 4.15 µM; in the assay on OVCAR-5 ovarian, 8.35 µM; in the assay with LOX IMVI melanoma, 3.01 µM. Also, the TGI with HCT-116 colon was 2.72 µM; in the assay with NCI-H226 lung, 22.9 µM; in the assay on SF-268 CNS it was 3.86 µM; with SK-OV-3 ovarian it was 6.09 µM.
Turning to `Cc1cc(C)nc(NS(=O)(=O)c2ccc(Nc3c4ccc(Cl)cc4nc4c(C(=O)NCCN(C)C)cccc34)cc2)n1`, the TGI in the assay on HT29 colon, with SN12C renal, in the assay on IGROV1 ovarian, with A549 NSCLC, with OVCAR-5 ovarian and with LOX IMVI melanoma was over 100 µM throughout. Moreover, the TGI with HCT-116 colon, in the assay on NCI-H226 lung, in the assay on SF-268 CNS and in the assay on SK-OV-3 ovarian was over 100 µM in each case.
Regarding `Oc1cc2ccccc2c(-c2c(O)c(O)cc3ccccc23)c1O`, the GI50 in the assay on HT29 colon was 3.95 µM; with SN12C renal it was 1.99 µM; in the assay on IGROV1 ovarian it was 0.273 µM; in the assay on A549 NSCLC it was 0.41 µM; in the assay on OVCAR-5 ovarian it was 4.54 µM; with LOX IMVI melanoma it was 0.939 µM. Further, the GI50 in the assay with HCT-116 colon is 0.427 µM; in the assay on NCI-H226 lung, 3.83 µM; in the assay on SF-268 CNS, 1.88 µM; in the assay with SK-OV-3 ovarian, 1.68 µM. Moreover, the TGI in the assay on HT29 colon was determined as 25.3 µM; in the assay with SN12C renal, 15.8 µM; in the assay on IGROV1 ovarian, 3.4 µM; in the assay with A549 NSCLC, 19.3 µM; with OVCAR-5 ovarian, 24.1 µM; in the assay on LOX IMVI melanoma it was 8.57 µM. For the same compound, the TGI in the assay with HCT-116 colon is 11.9 µM; with NCI-H226 lung, 26.6 µM; in the assay on SF-268 CNS it was 23.3 µM; in the assay with SK-OV-3 ovarian, 17.3 µM.
